The values below come from PubChem BioAssay AID1508610 (The Scripps Research Institute Molecular Screening Center, 2020).

A word on the EC50: it is the concentration at which the effect is half-maximal.

Activity calls are given as the source filed them. The rule behind the calls is not given here. Bounds are passed on as bounds.

G-protein coupled receptor 151 (Homo sapiens), sequence (Q8TDV0 whole entry, looked up): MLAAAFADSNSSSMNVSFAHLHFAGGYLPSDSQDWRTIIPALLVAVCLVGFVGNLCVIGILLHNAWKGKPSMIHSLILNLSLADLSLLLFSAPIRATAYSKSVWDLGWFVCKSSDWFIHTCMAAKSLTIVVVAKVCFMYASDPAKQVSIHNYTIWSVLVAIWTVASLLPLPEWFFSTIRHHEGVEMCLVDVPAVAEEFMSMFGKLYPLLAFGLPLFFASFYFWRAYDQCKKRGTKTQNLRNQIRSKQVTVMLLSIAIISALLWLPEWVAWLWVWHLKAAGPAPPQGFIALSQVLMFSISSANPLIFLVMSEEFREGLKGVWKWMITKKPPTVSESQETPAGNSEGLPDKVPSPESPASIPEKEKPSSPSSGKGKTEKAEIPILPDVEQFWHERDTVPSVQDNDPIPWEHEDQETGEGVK

This assay has as its target G-protein coupled receptor 151 (Homo sapiens) (UniProt Q8TDV0). Nature of the assay: GPR151 activator potency, dose response, cell-based (AID 1508610). Conditions: cell-based GPR151 activation reporter.
In the case of `COc1ccc(-c2ccc(C(=O)NCCO)s2)cn1`, the EC50 was > 27.9 µM (inactive).
For the molecule `CCOc1ccc(-c2csc(/C(C#N)=C/c3ccccc3OCC)n2)cc1`, the EC50 is > 25.5 µM (inactive).
For `NC(=O)c1ccsc1NC(=O)/C=C/c1ccccc1`, the EC50 was > 26.7 µM (inactive).
On to `COc1ccc(-c2nc(Nc3ccc(C)c(Cl)c3)c3ccccc3n2)cc1OC`, for which the EC50 is > 26.1 µM (inactive).
As for `COc1ccc(-c2noc(CCC(=O)Nc3ccc(C)c(C)c3)n2)cc1`, the EC50 was > 28 µM (inactive).
The value for `CC(=O)Nc1ccc(Nc2ccnc(N3CCc4ccccc4C3)n2)cc1` was “inactive”.
The value for `CC[n+]1cc(C)ccc1/C=C/c1ccc(N(C)C)cc1` was > 29.7 µM (inactive).
The same measure for `COc1cc([N+](=O)[O-])ccc1NC(=O)Nc1ccc(Cl)cc1F`: > 28 µM (inactive).
For `O=C(O)CCn1cc(C=C2C(=O)NC(=O)NC2=O)c(-c2ccc(Br)cc2)n1`, the EC50 was > 28 µM (inactive).
The same measure for `COC(=O)c1cc2c(N3CCC(Cc4ccccc4)CC3)ncnc2s1`: > 27.4 µM (inactive).
Take `COc1ccc(-c2cn3cc(C(=O)O)ccc3n2)cc1`: the EC50 is > 29.2 µM (inactive).
The same measure for `CC(=O)Oc1ccccc1N1C(=O)c2cccc([N+](=O)[O-])c2C1=O`: > 35.6 µM (inactive).
Take `Cc1nc2nc(SCC(=O)N3CCOCC3)nn2c(C)c1Cc1ccccc1`: the EC50 is > 28 µM (inactive).
`Oc1csc(Cc2nc(-c3ccccc3F)cs2)n1`: the EC50 is > 28.7 µM (inactive).
For the molecule `COc1ccc(C(=O)N(C)Cc2ccccc2)cc1I`, the EC50 was > 28 µM (inactive).
For `COc1ccc(CCN2C(=O)c3ccc(Oc4ccc(Nc5ncnc6ccccc56)cc4)cc3C2=O)cc1OC`, the EC50 is 2.42 µM.
The same measure for `CCN(CC)c1ccc(NC(=O)/C=C\C(=O)O)cc1`: > 28 µM (inactive); for `CN1CCN(c2cc(-c3cn[nH]c3)ccc2NC(=O)Cc2cccc(Cl)c2)CC1`: 1.25 µM.
The value for `CCCN1C(=O)C[n+]2ccccc2C1C(=O)Nc1ccccc1C` (stereo not drawn) was > 28 µM (inactive); that for `O=C(O)CC1c2ccccc2CCN1S(=O)(=O)c1ccc(Cl)cc1` (stereo not drawn) was “inactive”.
In the case of `Cc1ccc(NC(=O)/C(=C/c2cccc([N+](=O)[O-])c2)NC(=O)c2cccs2)c(Br)c1`, the EC50 is > 18.7 µM (inactive).
The same measure for `COc1ccc(Cl)cc1NC(=O)Nc1cccc([N+](=O)[O-])c1C`: > 28 µM (inactive); for `CCOC(=O)c1c(NC(=O)C(C)C)sc(C(C)=O)c1C`: “inactive”; for `CC(C)NC(=O)c1cnc2scc(-c3ccccc3)n2c1=O`: > 28 µM (inactive).
`O=C(Nc1nc2ccccc2[nH]1)c1ccccc1Cl`: the EC50 is > 28.9 µM (inactive).
As for `Cc1c(C(=O)NCc2ccco2)oc2ccc(S(=O)(=O)N(C)C3CCCCC3)cc12`, the EC50 was > 28 µM (inactive).
For the molecule `COc1ccccc1C1c2c(oc3ccc(C)cc3c2=O)C(=O)N1CCN1CCOCC1` (stereo not drawn), the EC50 is 0.00152 µM.
`CSc1cccc(CN2CCN(Cc3ccccc3F)C(CCO)C2)c1` (stereo not drawn): the EC50 was > 28 µM (inactive).
The same measure for `COc1ccc(-c2csc(/C(C#N)=C/Nc3ccc(F)c([N+](=O)[O-])c3)n2)cc1OC`: > 27.6 µM (inactive).
The value for `CCOc1cc(OCC)cc(C(=O)Nc2ccc(Br)cn2)c1` was > 28 µM (inactive).
With `O=c1oc2cc(O)ccc2cc1-c1ccccc1`, the EC50 is > 28.2 µM (inactive).
Turning to `CCC(C)OC(=O)C1=C(C)NC2=C(C(=O)CC(c3ccc(OC)cc3)C2)C1c1cc(OC)c(OC)cc1Br` (stereo not drawn), the EC50 is > 22.4 µM (inactive).
As for `CC(c1ccccc1)C1CC(=O)N(Cc2ccccc2)C1=O` (stereo not drawn), the EC50 is > 32.4 µM (inactive).
As for `Cc1sc2ncnc(N3CCN(c4ccccn4)CC3)c2c1C`, the EC50 was > 32.6 µM (inactive).
`O=C1CC(c2ccc(O)cc2)Oc2ccccc21` (stereo not drawn): the EC50 was > 28 µM (inactive).
As to `O=C(Nc1nnc(SCc2cccc(F)c2)s1)C1CC1`, the EC50 was > 29 µM (inactive).
The value for `COC(C(=O)NCC1CCC2(CCN(Cc3ccccc3)CC2)O1)c1ccccc1` (stereo not drawn) was > 28 µM (inactive); that for `O=C(NCCOc1ccccc1)c1ccc(-c2ccc(N3CCOCC3)nc2)s1` was > 33 µM (inactive).
The value for `Cc1ccc(S(=O)(=O)N(CC(O)Cn2nc(C)cc2C)c2cccc([N+](=O)[O-])c2)cc1` (stereo not drawn) was > 28 µM (inactive); that for `O=C(CSc1nc(NC2CCCCC2)c2ccccc2n1)c1ccc(F)cc1` was > 28.1 µM (inactive); that for `Cc1ccc(NC(=O)CN(C)S(=O)(=O)c2ccc(Br)cc2)cc1Cl` was > 28 µM (inactive).
Turning to `O=C(CN1C(=O)C(c2ccccc2)=NC12CCCC2)Nc1ccccc1`, the EC50 was > 28 µM (inactive).
As to `O=C(Nc1ncc([N+](=O)[O-])s1)c1cccnc1`, the EC50 was > 31.4 µM (inactive).
Consider `CCOc1ccccc1CN1CCN(Cc2cccc(OC)c2)CC1CCO` (stereo not drawn), for which the EC50 was > 28 µM (inactive).
The same measure for `COc1cccc(-c2ccc(SCC(=O)Nc3cc(C)on3)nn2)c1`: > 28.3 µM (inactive); for `N#Cc1nc2[nH]c(-c3ccccc3)cc(=O)n2c1C#N`: > 30 µM (inactive).
In the case of `CC1=NCCc2c1[nH]c1cc(O)ccc21`, the EC50 was > 28 µM (inactive).
Take `COCCn1c(C)cc(C(=O)COC(=O)c2cccc(O)c2)c1C`: the EC50 was > 30.4 µM (inactive).
The value for `CCOC(=O)c1cc2c(c(CSc3nc4ccccc4c(=O)n3Cc3ccc4c(c3)OCO4)c1)OCOC2` was > 21.4 µM (inactive); that for `C=CCN1/C(=C\C=C2\C=Nc3ccc(Br)cc32)C=Cc2ccc(C)cc21` was > 21.9 µM (inactive).
The value for `Cc1ccn(CCC(=O)NCC2Cc3cc(-c4cnccn4)cc(Cl)c3O2)n1` (stereo not drawn) was > 28 µM (inactive); that for `Cc1nc(/C=C/c2ccc(Cl)cc2)sc1C(=O)O` was > 32 µM (inactive).
On to `COc1ccc(-c2nc(Nc3ccccc3F)c3ccccc3n2)cc1OC`, for which the EC50 is > 28.2 µM (inactive).
Regarding `O=C(Nc1ccc(-c2cccc(F)c2)cc1)C1CCCN(C(=O)C2CCOCC2)C1` (stereo not drawn), the EC50 is > 28 µM (inactive).
Regarding `CCn1ccnc1CN1CCN(Cc2ccc(F)cc2)C(CCO)C1` (stereo not drawn), the EC50 is > 28 µM (inactive).
The same measure for `Cc1nn(-c2ccc(Nc3ccc(NC(=O)c4cccc(F)c4)cc3)nn2)c(C)c1C`: “inactive”.
The same measure for `COc1ccccc1CN[C@H]1C[C@H]2C(=O)N[C@@H](CC(C)C)C(=O)N2C1`: > 28 µM (inactive); for `Cc1ccc(-n2nc3c(c2NC(=O)c2cccc(F)c2)CS(=O)C3)c(C)c1` (stereo not drawn): > 27.8 µM (inactive); for `COc1cccc(NC(=O)c2oc3ccc4c(c3c2C)C(=O)CC(C)(C)O4)c1`: > 28 µM (inactive).
Turning to `O=C(NC1CC1)c1ccc2nc(-c3csc4ccccc34)sc2c1`, the EC50 was > 28.1 µM (inactive).
Take `CCOCCCNC(=O)CSc1ncccc1-c1nc2cc(C)c(C)cc2[nH]1`: the EC50 is > 28 µM (inactive).
With `CCN1/C(=C/c2ccc3cc(C)ccc3[n+]2CC)Sc2ccc(-c3ccccc3)cc21`, the EC50 entry is “inactive”.
For the molecule `O=C(NC1(C(F)(F)F)NC(=O)N(c2ccc(F)cc2)C1=O)c1ccncc1` (stereo not drawn), the EC50 was > 28 µM (inactive).
The same measure for `Cc1ccc(/C=N/NC(=O)Cc2cccn2C)s1`: > 28 µM (inactive).
On to `COc1ccc(-c2ccc(C(=O)Nc3ccc(NC(C)=O)cc3)s2)cn1`, for which the EC50 is > 28.2 µM (inactive).
Take `COc1cc(Nc2ccnc(Nc3ccc(N4CCOCC4)cc3)n2)cc(OC)c1OC`: the EC50 is > 28.2 µM (inactive).
The same measure for `CC1CCCCN1Cc1nc2c(c(=O)n(C)c(=O)n2C)n1CC(N)=O` (stereo not drawn): > 28 µM (inactive); for `CCOc1ccc(-c2n[nH]c(=S)n2-c2ccccc2)cc1`: “inactive”.
Turning to `O=C1CS/C(=C\c2nc3ccccc3s2)N1`, the EC50 was > 31.6 µM (inactive).
Turning to `Cc1n[nH]c(C)c1S(=O)(=O)NCc1ccc(F)cc1`, the EC50 was > 28 µM (inactive).
Take `CC(C)CC(=O)NCC1CCC2(CCN(Cc3ccccc3F)CC2)O1` (stereo not drawn): the EC50 was > 28 µM (inactive).
For the molecule `CCOc1cc(/C=c2/sc3n(c2=O)CCN=3)ccc1O`, the EC50 was > 40 µM (inactive).
In the case of `O=C(NCc1ccc(F)cc1)c1cc(-c2ccccc2Cl)nc2ccccc12`, the EC50 was > 32.1 µM (inactive).
Take `C=CCN1C(=O)CS/C1=N\NC(=O)c1ccccc1`: the EC50 was > 28.5 µM (inactive).
`O=C(Nc1ncc([N+](=O)[O-])s1)c1ccc(Br)cc1F`: the EC50 is > 27.5 µM (inactive).
Consider `O=C(O)c1cccc(COc2cccc(Cl)c2)c1`, for which the EC50 is > 28 µM (inactive).
On to `CCOC(=O)C1=C(C)N=c2s/c(=C\c3ccc(-c4ccccc4C(=O)O)o3)c(=O)n2C1c1ccccc1OC` (stereo not drawn), for which the EC50 is > 25.1 µM (inactive).
For the molecule `Cn1c2c(c(=O)n(C)c1=O)C(c1cccc(F)c1)C1=C(CC(C)(C)CC1=O)N2` (stereo not drawn), the EC50 is > 27.8 µM (inactive).
Consider `Cc1ccc(C(=O)Nc2ncc([N+](=O)[O-])s2)cc1`, for which the EC50 is > 31.4 µM (inactive).
The value for `O=C(Nc1nc(-c2cc3ccccc3o2)cs1)c1cc2ccccc2oc1=O` was > 24.7 µM (inactive); that for `CCN(CC)S(=O)(=O)c1ccc(C(=O)Nc2nnc(C(C)C)s2)cc1` was > 23.9 µM (inactive); that for `Cc1ccc(C(=O)Nc2ccc([N+](=O)[O-])cc2)c(Cl)c1` was > 28 µM (inactive).
On to `Clc1ccc(-c2nc(-c3ccccn3)no2)c(Cl)c1`, for which the EC50 is > 29.7 µM (inactive).
For the molecule `CCCOc1ccc(NC(=O)CC2C(=O)N(c3ccc(Cl)cc3)C(=S)N2Cc2ccncc2)cc1` (stereo not drawn), the EC50 is > 23.5 µM (inactive).
Regarding `COC(=O)C(NC(=O)c1ccc(Br)cc1)c1ccccc1` (stereo not drawn), the EC50 is > 28 µM (inactive).
The same measure for `COC(=O)c1ccc(Cl)cc1NC(=O)N(C(C)C)C1CCN(C(C)=O)CC1`: > 28 µM (inactive).
For the molecule `Cn1cccc1C(=O)OCC(=O)NC(=O)NCc1ccccc1`, the EC50 was > 28.4 µM (inactive).
`O=C(O)c1ccc(-n2cc(-c3ccc(Cl)cc3)cn2)cc1`: the EC50 is > 28 µM (inactive).
